This series deals with HuH-7 and SNU-398 cells. Description: In vivo tumorigenicity of shRNA-transduced HCC cells in NOD/SCID mice. On the procedure: 4- to 8-week-old NOD/SIC mice were used. Animal work was done at the Childrens Hospital Boston (CHB) with approval from IACUC. 10×10^6 SNU-398 or 6×10^6 HuH-7 cells infected with viruses expressing scrambled shRNA or E5 shRNA specific for SALL4 (total 300 μL of cell suspension and matrigel in 1:1 ratio) were injected subcutaneously (s.c.) into NOD/SCID mice on the right flank. After injection, mice were examined and tumor volumes were measured at various time points. Tumor volume=π/6×larger diameter×(smaller diameter)^2. Tumor samples were processed for routine histology examination.
A decrease in tumorigenicity in SALL4-knockdown HCC cells was anticipated and an in vivo transplantation assay was carried out to confirm this hypothesis. HuH-7, another HCC cell line with considerably high endogenous SALL4 expression, and SNU-398 cells were transduced with lentivirus expressing either E5 shRNA or control scrambled shRNA and transplanted subcutaneously into right flank of NOD/SCID mice.
To examine if SALL4 has a role in maintaining tumorigenicity of HCC cells, in vivo xenotransplantation assays were carried out. HuH-7 and SNU-398 cells were transduced with lentviruses expressing either shSALL4 1 or Scr shRNA 1 and transplanted subcutaneously into the flanks of NOD/SCID mice.

On to “CTATTTAGCCAAAGGCAAA (short hairpin RNA, chemistry and delivery not given here, further chemistry not given here) [E5 shRNA]”, for which the “mice with tumor formation” value (HuH-7, subcutaneous, n=3) is listed as “one out of the three”. Moreover, the “ability of cells to propagate tumors” value (HuH-7 and SNU-398) is “greatly reduced the ability of these cells to propagate tumors”. Also, the survival of mice result (HuH-7 and SNU-398, Kaplan-Meier) was “significant survival advantage”.

The values are drawn from patent publication US9365851B2, “Spalt-like transcription factor 4 (SALL4) and uses thereof” (National University of Singapore, priority 2011, dated 2016).
